Data set [1] in a line: In vivo kinetics (absorption and excretion test) in mice. Particulars: male, Slc ddY, mouse, sc, 5 mg/kg.
In data set [2] the test system is Past haemolytica BBPO102 N811. The data set can be described thus: Minimum inhibition concentration (MIC), agar double dilution method. It counts as cell-based, Pasteurella haemolytica. To be noted: Mannheimia haemolytica, BBPO102N811. The method in brief:
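Compounds were serially double-diluted into Mueller Hinton agar, following the Japan Society of Chemotherapy standard, and the test strains were then grown on it. Pasteurella alone was tested on brain heart infusion agar.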

A further data set concerns ICR mice. The data set is described as follows: Toxicity test, intravenous or subcutaneous injection. To be noted: intravenous injection. It counts as in vivo.
For the next data set, the system named is M. bovirhinis. The data set can be described thus: Bacteria separation test from nasal cavity swab. Type of data set: in vivo, cattle.

Converted amounts (≈) assume the structure as drawn.

Take `CC[C@H]1OC(=O)C[C@@H](O)[C@H](C)[C@@H](O[C@@H]2O[C@H](C)C(O)C(N(C)C)C2O)[C@@H](CCN2CC(C)CC(C)C2)C[C@@H](C)C(=O)/C=C/C(C)=C/[C@@H]1CO[C@@H]1OC(C)C(O)[C@@H](OC)C1OC` (stereo partly shown) [Tilmicosin, tilmicosin]: in data set [1] (lung), the concentration at 0.5 h was 310 ng/g, the concentration at 1 h came to 350 ng/g, the concentration at 2 h stood at 310 ng/g and the concentration at 4 h is 230 ng/g. In data set [1] (lung), this molecule returned a concentration at 8 h of 195 ng/g and a concentration at 24 h of 60 ng/g. Moreover, in data set [1] (serum), the concentration at 0.5 h worked out at 230 ng/mL, the concentration at 1 h was found to be 60 ng/mL, the concentration at 2 h was determined as 50 ng/mL and the concentration at 4 h was 40 ng/mL. Moreover, the MIC in data set [2] amounted to 1.56 µg/mL (≈ 1.79 µM). Also, the Dissection finding entry in the data set on ICR mice (0.5 mg/mouse) is listed as “immediate death”. The Dissection finding result in the data set on ICR mice (1.0 mg/mouse) is “immediate death”. The Dissection finding result in the data set with ICR mice (2.0 mg/mouse) was “immediate death”. Also, in the data set on M. bovirhinis (at completion), the “Separation rate (%) at completion (number of animal)” value was 60 (3/5) % (number of animal). Moreover, the “Separation rate (%) before administration (number of animal)” value in the data set with M. bovirhinis (before administration (baseline)) is on record as 60 (3/5) % (number of animal).

For the origin of these results see US6514946B1, “Macrolide antibiotics and treatment and prophylaxis of pasteurellosis using the same” (Zaidan Hojin Biseibutsu Kagaku Kenkyu Kai, priority 1999, dated 2003).
